For assay [1], the target named is mMC5R (Mus musculus, UniProt P41149). Put plainly: AlphaScreen cAMP agonist assay, HEK293 cells stably expressing mMC5R. The note with it: for fold decreased mMC5R agonist potency: relative to 2718.002.
Description: (§1) Pyrrolidine bis-cyclic guanidine compounds were assessed for biological activity using the AlphaScreen cAMP kit with HEK293 cells stably expressing the mMC1R, mMC3R, mMC4R, or mMC5R, as previously described [37, 38, 39]. […] Compounds were assayed for agonist activity in a 7-point dose–response curve (10^−3 to 10^−9 M). […] The purified compounds were dissolved in DMSO at a stock concentration of 10^−1 M and assayed using HEK293 cells stably expressing the mouse MC1R, MC3R, MC4R, and MC5R using the AlphaScreen cAMP bioassay (PerkinElmer, Waltham, MA, USA) according to the manufacturer’s instructions and as previously described [37, 38, 39].
(§2) Briefly, cells 70−90% confluent were dislodged with Versene (Gibco, Waltham, MA, USA) at 37 °C and 10,000 cells/well were plated in a 384-well plate (Optiplate, PerkinElmer, Waltham, MA, USA) with 10 μL of freshly prepared stimulation buffer (1× HBSS, 5 mM HEPES, 0.5 mM IBMX, 0.1% BSA, pH = 7.4) with 0.5 μg of anti-cAMP acceptor beads per well. The cells were stimulated with the addition of 5 μL of stimulation buffer containing compound or forskolin (10^−4 M) and incubated in the dark at room temperature for 2 h. Following stimulation, streptavidin donor beads (0.5 μg) and biotinylated cAMP (0.62 μmol) were added to the wells in a green light environment with 10 μL of lysis buffer (5 mM HEPES, 0.3% Tween-20, 0.1% BSA, pH = 7.4) and the plates were incubated in the dark at room temperature for an additional 2 h. Plates were read on a Enspire (PerkinElmer, Waltham, MA, USA) Alpha plate reader using a pre-normalized assay protocol (set by the manufacturer).
Assay [2] deals with mMC4R (Mus musculus, UniProt P56450). Put plainly: AlphaScreen cAMP agonist assay, HEK293 cells stably expressing mMC4R.
Description: as §1, §2
In assay [3] the target is mMC3R (Mus musculus, UniProt P33033). Put plainly: AlphaScreen cAMP agonist assay, HEK293 cells stably expressing mMC3R. The settings on record: for mMC3R partial agonist efficacy bin: sigmoidal curve, efficacy <90% of NDP-MSH.
mMC3R, sequence (P33033 whole entry): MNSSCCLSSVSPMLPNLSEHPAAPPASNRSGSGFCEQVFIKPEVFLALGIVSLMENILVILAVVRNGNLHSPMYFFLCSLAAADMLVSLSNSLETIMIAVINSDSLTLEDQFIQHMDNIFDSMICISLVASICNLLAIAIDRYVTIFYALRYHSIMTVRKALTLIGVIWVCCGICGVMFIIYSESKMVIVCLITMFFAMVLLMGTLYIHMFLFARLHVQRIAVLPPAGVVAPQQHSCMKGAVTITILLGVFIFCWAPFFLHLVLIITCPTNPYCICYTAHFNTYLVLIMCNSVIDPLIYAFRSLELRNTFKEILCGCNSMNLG
Assay [4] concerns the target mMC1R (Mus musculus, UniProt Q01727). Put plainly: AlphaScreen cAMP agonist assay, HEK293 cells stably expressing mMC1R. The note with it: for mMC1R partial agonist efficacy bin: sigmoidal curve, efficacy <90% of NDP-MSH.
Description: as §1, §2
[5] abbreviates: sigmoidal curve, efficacy <90% of NDP-MSH.

mMC1R, sequence (Q01727 whole entry): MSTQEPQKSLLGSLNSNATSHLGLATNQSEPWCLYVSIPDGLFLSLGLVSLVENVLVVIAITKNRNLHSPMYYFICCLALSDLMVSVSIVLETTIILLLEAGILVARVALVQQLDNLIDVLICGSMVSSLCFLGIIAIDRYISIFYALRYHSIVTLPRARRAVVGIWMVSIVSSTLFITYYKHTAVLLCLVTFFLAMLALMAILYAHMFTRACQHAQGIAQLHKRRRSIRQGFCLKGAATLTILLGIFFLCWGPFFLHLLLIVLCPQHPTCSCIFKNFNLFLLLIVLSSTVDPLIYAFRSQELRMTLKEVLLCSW
mMC4R, sequence (P56450 whole entry): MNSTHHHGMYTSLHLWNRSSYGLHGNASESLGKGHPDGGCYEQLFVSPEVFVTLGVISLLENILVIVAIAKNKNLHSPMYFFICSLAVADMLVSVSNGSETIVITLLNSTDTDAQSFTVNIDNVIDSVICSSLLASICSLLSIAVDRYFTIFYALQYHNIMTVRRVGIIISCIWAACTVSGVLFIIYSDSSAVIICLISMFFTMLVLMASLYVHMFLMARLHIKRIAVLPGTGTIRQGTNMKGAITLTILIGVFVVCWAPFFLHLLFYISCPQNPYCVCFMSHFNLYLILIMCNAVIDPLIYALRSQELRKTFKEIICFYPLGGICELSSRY
mMC5R, sequence (P41149 whole entry): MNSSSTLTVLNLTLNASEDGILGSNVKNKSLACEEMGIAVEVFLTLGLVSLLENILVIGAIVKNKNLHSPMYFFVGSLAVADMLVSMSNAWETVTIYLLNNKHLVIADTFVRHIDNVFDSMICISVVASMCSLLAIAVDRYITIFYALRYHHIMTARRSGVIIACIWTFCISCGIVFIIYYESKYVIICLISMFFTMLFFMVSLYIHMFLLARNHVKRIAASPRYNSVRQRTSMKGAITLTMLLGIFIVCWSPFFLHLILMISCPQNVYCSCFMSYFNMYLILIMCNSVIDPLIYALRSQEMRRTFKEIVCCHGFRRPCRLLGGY

On to `CCC[C@@H]1CN([C@H](CC2CCCCC2)CN2CCC[C@H]2CN2C(=N)NC[C@H]2C(C)C)C(=N)N1` [Compound 2718.015], for which the “mMC5R percent maximal stimulatory response (compared to NDP-MSH)” value in assay [1] (at 1 mM, not enough stimulation to determine EC50) is 35% @ 1 mM. For the same compound, the EC50 in assay [2] is above 1000 µM; in assay [3], above 1000 µM; in assay [4], 11 µM. Also, in assay [4], the “mMC1R partial agonist efficacy bin” value is “B (B (51–90% receptor activation))”.

`CC(C)CC1CNC(=N)N1CC1CCCN1CC(Cc1ccc(O)cc1)N1CC(C(C)O)N(CC2CCC(C(C)(C)C)CC2)C1=N` (stereo not drawn) [Compound 2718.057]: the EC50 in assay [1] turned out to be 6 ± 2 µM; in assay [3], 11 µM; in assay [4], 0.5 ± 0.1 µM. Also, in assay [1] (setting [5]), the “mMC5R partial agonist efficacy bin” value is recorded as “B (B (51–90% receptor activation))”. Further, in assay [3], the “mMC3R partial agonist efficacy bin” value is recorded as “B (B (51–90% receptor activation))”.

As to `CC(C)CC1CNC(=N)N1CC1CCCN1CC(Cc1ccc2ccccc2c1)N1CC(C(C)O)N(CC2CCC(C(C)(C)C)CC2)C1=N` (stereo not drawn) [Compound 2718.055], the EC50 was 8 ± 2 µM in assay [1], 7 ± 3 µM in assay [3] and 1 ± 0.2 µM in assay [4]. For the same compound, the “mMC3R partial agonist efficacy bin” value in assay [3] was “B (B (51–90% receptor activation))”.

As for `CC(C)C[C@@H]1CNC(=N)N1C[C@@H]1CCCN1C[C@@H](CC1CCCCC1)N1C[C@@H]([C@H](C)O)NC1=N` [Compound 2718.011], the 50% effective concentration (EC50) in assay [2] was above 1000 µM; in assay [3], above 1000 µM; in assay [4], 15 µM. For the same compound, the “mMC1R partial agonist efficacy bin” value in assay [4] is “B (B (51–90% receptor activation))”.

For `CC(C)C[C@@H]1CNC(=N)N1C[C@@H]1CCCN1C[C@@H](CC1CCCCC1)N1CCNC1=N` [Compound 2718.012], the EC50 is above 1000 µM in assay [2], above 1000 µM in assay [3] and 15 µM in assay [4]. The “mMC1R partial agonist efficacy bin” value in assay [4] is “B (B (51–90% receptor activation))”.

Turning to `CC(C)C[C@@H]1CNC(=N)N1C[C@H]1CCCN1C[C@@H](CC1CCCCC1)N1C[C@@H]([C@H](C)O)N(CC2CCC(C(C)(C)C)CC2)C1=N` (stereo partly drawn) [Compound 2718.047], the concentration giving a half-maximal response (EC50) in assay [1] was found to be 0.45 ± 0.03 µM; in assay [2], 3.1 ± 0.2 µM; in assay [4], 0.87 ± 0.07 µM. The “mMC4R partial agonist efficacy bin” value in assay [2] (setting [5]) is given as “B (B (51–90% receptor activation))”.

As to `CC(C)C[C@H]1CNC(=N)N1C[C@@H]1CCCN1C[C@@H](CC1CCCCC1)N1C[C@@H]([C@H](C)O)N(CC2CCC(C(C)(C)C)CC2)C1=N` (stereo partly drawn) [Compound 2718.048], the values for the EC50 in assay [1], in assay [3] and in assay [4] were 0.65 ± 0.08 µM, 2.9 ± 0.2 µM and 0.39 ± 0.03 µM, respectively. The “mMC3R partial agonist efficacy bin” value in assay [3] is “B (B (51–90% receptor activation))”.

Regarding `CC(C)C[C@H]1CNC(=N)N1C[C@H]1CCCN1C[C@H](CC1CCCCC1)N1C[C@H]([C@@H](C)O)N(CC2CCC(C(C)(C)C)CC2)C1=N` (stereo partly drawn) [Compound 2718.049], in assay [1], the midpoint of the response, the EC50, lay at 2.8 ± 0.1 µM and the “fold decreased mMC5R agonist potency” value was found to be 10 fold. In addition, in assay [4], the half-maximal effective concentration (EC50) is 8 ± 2 µM and the “mMC1R partial agonist efficacy bin” value is given as “B (B (51–90% receptor activation))”.

For `CC(C)CC1CNC(=N)N1CC1CCCN1CC(C1CCCCC1)N1CC(C(C)O)N(CC2CCC(C(C)(C)C)CC2)C1=N` (stereo not drawn) [Compound 2718.059], in assay [1], the EC50 was 6 ± 1 µM and the “fold decreased mMC5R agonist potency” value is given as 20 fold. For the same compound, in assay [3], the concentration for a half-maximal effect (EC50) was determined as 11 µM and the “mMC3R partial agonist efficacy bin” value is “A (A (20–50% receptor activation))”.

Regarding `CC(C)[C@@H]1CNC(=N)N1C[C@@H]1CCCN1C[C@@H](CC1CCCCC1)N1CCNC1=N` [Compound 2718.016], the concentration giving a half-maximal response (EC50) in assay [3] was above 1000 µM; in assay [4], 30 µM. In addition, the “mMC1R partial agonist efficacy bin” value in assay [4] is reported as “B (B (51–90% receptor activation))”.

Take `CC(C)CC1CNC(=N)N1CC1CCCN1CC(Cc1c[nH]c2ccccc12)N1CC(C(C)O)N(CC2CCC(C(C)(C)C)CC2)C1=N` (stereo not drawn) [Compound 2718.056]: in assay [1], the concentration giving a half-maximal response (EC50) is 14 µM and the “fold decreased mMC5R agonist potency” value was 50 fold. Moreover, in assay [4], the midpoint of the response, the EC50, lay at 6 ± 3 µM and the “mMC1R partial agonist efficacy bin” value is on record as “B (B (51–90% receptor activation))”.
